Laboratory results published in patent US20250026752A1, “POSITIVE ALLOSTERIC MODULATORS OF THE MUSCARINIC ACETYLCHOLINE RECEPTOR M4” (Vanderbilt University, priority 2021, published 2025).

Target: T1, human mAChR M4 (Homo sapiens, UniProt P08173)
T1 construct: expressed in transfected cells; host or cells: CHO-K1 (ATCC), stably expressing hM4 and Gqi5
T1 sequence (P08173 1-479): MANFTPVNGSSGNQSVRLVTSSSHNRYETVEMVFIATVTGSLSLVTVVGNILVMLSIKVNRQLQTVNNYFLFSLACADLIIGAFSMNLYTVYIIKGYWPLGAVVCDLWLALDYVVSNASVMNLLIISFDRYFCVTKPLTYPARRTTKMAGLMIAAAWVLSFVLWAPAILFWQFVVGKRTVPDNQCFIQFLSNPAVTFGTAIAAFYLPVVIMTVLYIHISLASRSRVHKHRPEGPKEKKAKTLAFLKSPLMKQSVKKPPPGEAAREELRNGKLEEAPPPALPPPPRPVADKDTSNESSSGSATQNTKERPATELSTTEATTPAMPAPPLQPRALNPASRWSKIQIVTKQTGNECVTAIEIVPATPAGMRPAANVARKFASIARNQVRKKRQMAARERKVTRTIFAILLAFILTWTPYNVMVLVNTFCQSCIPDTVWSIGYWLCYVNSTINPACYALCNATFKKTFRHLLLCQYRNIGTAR
Test: mAChR M4 cell-based functional assay: calcium flux (Fluo-4, FDSS), positive allosteric modulator activity on the EC20 acetylcholine response, hM4-Gqi5 CHO-K1 cells
Conditions: for Emax at 30 µM: CHO-K1, human M4, % ACh maximum at 30 μM; for EC50: human M4, PAM activity on EC20 acetylcholine response, calcium flux, read-out: Human M4 EC50
How it was run: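 Potentiation was taken as the concentration-dependent rise in the EC20 acetylcholine calcium response, fitted by a four-parameter logistic with EC20 as baseline. Fluo-4-loaded hM4-Gqi5 CHO-K1 cells received 11-point, threefold-diluted compound before acetylcholine at 144 s; FDSS read at 1 Hz.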

Emax at 30 µM [%] | EC50 [nM] | SMILES
89 | 90 | Fc1ccc2ncnc(N3CCc4ncc(C(F)(F)F)cc4C3)c2c1 [Compound 122, 6-fluoro-4-[3-(trifluoromethyl)-7,8-dihydro-5H-1,6-naphthyridin-6-yl]quinazoline]
68 | 340 | FC(F)(F)c1cnc2c(c1)CN(c1nc(Cl)nc3ccccc13)CC2 [Compound 123, 2-chloro-4-[3-(trifluoromethyl)-7,8-dihydro-5H-1,6-naphthyridin-6-yl]quinazoline]
43 | 950 | Cc1ccc2c(N3CCc4ncc(C(F)(F)F)cc4C3)nc(C)nc2c1 [Compound 124, 2,7-dimethyl-4-[3-(trifluoromethyl)-7,8-dihydro-5H-1,6-naphthyridin-6-yl]quinazoline]
78 | 400 | Cc1nc(N2CCc3ncc(C(F)(F)F)cc3C2)c2c(F)cccc2n1 [Compound 125, 5-fluoro-2-methyl-4-[3-(trifluoromethyl)-7,8-dihydro-5H-1,6-naphthyridin-6-yl]quinazoline]
66 | 310 | Cc1nc(N2CCc3ncc(C(F)(F)F)cc3C2)c2cccc(F)c2n1 [Compound 126, 8-fluoro-2-methyl-4-[3-(trifluoromethyl)-7,8-dihydro-5H-1,6-naphthyridin-6-yl]quinazoline]
63 | 430 | Cc1nc(N2CCc3ncc(C(F)(F)F)cc3C2)c2ccc(F)cc2n1 [Compound 127, 7-fluoro-2-methyl-4-[3-(trifluoromethyl)-7,8-dihydro-5H-1,6-naphthyridin-6-yl]quinazoline]
32 | 1740 | Cc1nc(N2CCc3ncc(C(F)(F)F)cc3C2)c2ccc(Br)cc2n1 [Compound 128, 7-bromo-2-methyl-4-[3-(trifluoromethyl)-7,8-dihydro-5H-1,6-naphthyridin-6-yl]quinazoline]
86 | 180 | Cc1nc(N2CCc3ncc(C(F)(F)F)cc3C2)c2cc(Br)ccc2n1 [Compound 129, 6-bromo-2-methyl-4-[3-(trifluoromethyl)-7,8-dihydro-5H-1,6-naphthyridin-6-yl]quinazoline]
86 | 80 | Cc1nc(N2CCc3ncc(C(F)(F)F)cc3C2)c2cc(F)ccc2n1 [Compound 130, 6-fluoro-2-methyl-4-[3-(trifluoromethyl)-7,8-dihydro-5H-1,6-naphthyridin-6-yl]quinazoline]
82 | 30 | Cc1ccc2ncnc(N3CCc4ncc(C(F)(F)F)cc4C3)c2c1 [Compound 131, 6-methyl-4-[3-(trifluoromethyl)-7,8-dihydro-5H-1,6-naphthyridin-6-yl]quinazoline]
32 | > 10000 | Cc1nc(N2CCc3ncc(C(F)(F)F)cc3C2)c2c(Cl)cccc2n1 [Compound 132, 5-chloro-2-methyl-4-[3-(trifluoromethyl)-7,8-dihydro-5H-1,6-naphthyridin-6-yl]quinazoline]
87 | 230 | Cc1nc(N2CCc3ncc(Oc4ccccc4F)cc3C2)c2cc(F)ccc2n1 [Compound 133, 6-fluoro-4-[3-(2-fluorophenoxy)-7,8-dihydro-5H-1,6-naphthyridin-6-yl]-2-methyl-quinazoline]
75 | 90 | Cc1nc(N2CCc3ncc(C(F)(F)F)cc3C2)c2cc(Cl)ccc2n1 [Compound 134, 6-chlroo-2-methyl-4-[3-(trifluoromethyl)-7,8-dihydro-5H-1,6-naphthyridin-6-yl]quinazoline]
91 | 1660 | FC(F)(F)c1cnc2c(c1)CN(c1nc(Cl)nc3ccc(C(F)(F)F)cc13)CC2 [Compound 135, 2-chloro-6-(trifluoromethyl)-4-[3-(trifluoromethyl)-7,8-dihydro-5H-1,6-naphthyridin-6-yl]quinazoline]
98 | 160 | FC(F)(F)c1cnc2c(c1)CN(c1ncnc3ccc(Br)cc13)CC2 [Compound 136, 6-bromo-4-[3-(trifluoromethyl)-7,8-dihydro-5H-1,6-naphthyridin-6-yl]quinazoline]
83 | 430 | Fc1ccc2c(N3CCc4ncc(C(F)(F)F)cc4C3)ncnc2c1 [Compound 137, 7-fluoro-4-[3-(trifluoromethyl)-7,8-dihydro-5H-1,6-naphthyridin-6-yl]quinazoline]

Emax at 30 µM [%] | EC50 [nM] | SMILES
82 | 480 | Cc1nc(N2CCc3ncc(C(F)(F)F)cc3C2)c2ccccc2n1 [Compound 138, 2-methyl-4-[3-(trifluoromethyl)-7,8-dihydro-5H-1,6-naphthyridin-6-yl]quinazoline]
97 | 200 | COc1ccc2ncnc(N3CCc4ncc(C(F)(F)F)cc4C3)c2c1 [Compound 139, 6-methoxy-4-[3-(trifluoromethyl)-7,8-dihydro-5H-1,6-naphthyridin-6-yl]quinazoline]
105 | 80 | FC(F)(F)c1cnc2c(c1)CN(c1ncnc3ccc(Cl)cc13)CC2 [Compound 140, 6-chloro-4-[3-(trifluoromethyl)-7,8-dihydro-5H-1,6-naphthyridin-6-yl]quinazoline]
95 | 220 | FC(F)(F)c1cnc2c(c1)CN(c1nc(Cl)nc3ccc(Cl)cc13)CC2 [Compound 141, 2,6-dichloro-4-[3-(trifluoromethyl)-7,8-dihydro-5H-1,6-naphthyridin-6-yl]quinazoline]
105 | 260 | Cc1nc(N2CCc3ncc(C(F)(F)F)cc3C2)c2cc(C#N)ccc2n1 [Compound 142, 2-methyl-4-[3-(trifluoromethyl)-7,8-dihydro-5H-1,6-naphthyridin-6-yl]quinazoline-6-carbonitrile]
77 | 1420 | Cc1nc(N2CCc3ncc(C(F)(F)F)cc3C2)c2cc(C3CC3)ccc2n1 [Compound 143, 6-cyclopropyl-2-methyl-4-[3-(trifluoromethyl)-7,8-dihydro-5H-1,6-naphthyridin-6-yl]quinazoline]
74 | 1890 | Cc1ccc(Oc2cnc3c(c2)CN(c2ncnc4ccc(F)cc24)CC3)c(F)c1 [Compound 144, 6-fluoro-4-[3-(2-fluoro-4-methyl-phenoxy)-7,8-dihydro-5H-1,6-naphthyridin-6-yl]quinazoline]
64 | 4800 | Cc1ccc(Oc2cnc3c(c2)CN(c2ncnc4ccc(Cl)cc24)CC3)c(F)c1 [Compound 145, 6-chloro-4-[3-(2-fluoro-4-methyl-phenoxy)-7,8-dihydro-5H-1,6-naphthyridin-6-yl]quinazoline]
40 | > 10000 | COc1ccc2ncnc(N3CCc4ncc(Oc5ccc(C)cc5F)cc4C3)c2c1 [Compound 146, 4-[3-(2-fluoro-4-methyl-phenoxy)-7,8-dihydro-5H-1,6-naphthyridin-6-yl]-6-methoxy-quinazoline]
54 | 8340 | Cc1ccc(Oc2cnc3c(c2)CN(c2nc(C)nc4ccc(Cl)cc24)CC3)c(F)c1 [Compound 147, 6-chloro-4-[3-(2-fluoro-4-methyl-phenoxy)-7,8-dihydro-5H-1,6-naphthyridin-6-yl]-2-methyl-quinazoline]
88 | 760 | Cc1ccc(F)c(Oc2cnc3c(c2)CN(c2ncnc4ccc(F)cc24)CC3)c1 [Compound 148, 6-fluoro-4-[3-(2-fluoro-5-methyl-phenoxy)-7,8-dihydro-5H-1,6-naphthyridin-6-yl]quinazoline]
97 | 170 | Clc1ccc2nc(Cl)nc(N3CCc4ncc(Br)cc4C3)c2c1 [Compound 149, 4-(3-bromo-7,8-dihydro-5H-1,6-naphthyridin-6-yl)-2,6-dichloro-quinazoline]
105 | 100 | Fc1ccc2nc(Cl)nc(N3CCc4ncc(Br)cc4C3)c2c1 [Compound 150, 4-(3-bromo-7,8-dihydro-5H-1,6-naphthyridin-6-yl)-2-chloro-6-fluoro-quinazoline]
102 | 110 | Fc1cc2ncnc(N3CCc4ncc(C(F)(F)F)cc4C3)c2cc1F [Compound 151, 6,7-difluoro-4-[3-(trifluoromethyl)-7,8-dihydro-5H-1,6-naphthyridin-6-yl]quinazoline]
72 | 5290 | Cc1ccc(F)c(Oc2cnc3c(c2)CN(c2ncnc4ccc(Cl)cc24)CC3)c1 [Compound 152, 6-chloro-4-[3-(2-fluoro-5-methyl-phenoxy)-7,8-dihydro-5H-1,6-naphthyridin-6-yl]quinazoline]
38 | > 10000 | COc1ccc2ncnc(N3CCc4ncc(Oc5cc(C)ccc5F)cc4C3)c2c1 [Compound 153, 4-[3-(2-fluoro-5-methyl-phenoxy)-7,8-dihydro-5H-1,6-naphthyridin-6-yl]-6-methoxy-quinazoline]
